Source: patent publication US9023809B2, “Phenylalanine dipeptide derivatives, compositions and use thereof” (The Key Laboratory of Chemistry For Natural Products of …, priority 2008, dated 2015)
Like-named read-outs stand apart in the source and are kept apart here. Marks after values point to notes of the source that are not given here.

Experiments:
[1] = tested on: HBsAg; assay: In vitro anti-HBV: inhibition of HBsAg secretion in 2.2.15 cell supernatant (RIA); assay type: cell-based, hepatitis B virus; details: for IC50: Hepatitis B virus, 192 h, read-out: Inhibition of HBsAg IC50
Protocol: Test Principle: • 2.2.15 cells were used as a vector of hepatitis B virus. Samples were assayed for their abilities to inhibit […] to carry out DNA replication and to produce HBsAg and HBeAg.
Test Materials and Method: • a. cell line: 2.2.15 cells; • b. treatment of samples: A sample was dissolved in DMSO in a suitable concentration right before use. The resulting solution was diluted in triple folds with culture media. There are eight dilutions. • c. positive control: Lamivudine (3TC) produced by Glaxo Wellcome; • d. reagents: radioimmunological kits of e antigen and s antigen of hepatitis B virus, α^32PdCTP; • e. test method: 2.2.15 cells were seeded in a 96-well microplate. After 36 hours, samples and positive controls in the above dilutions were added into the wells. Cell control wells were simultaneously set up. Culture media were replaced with fresh culture media containing samples in different dilutions, respectively, after 96 hours of addition of samples and positive controls. At the eighth day of addition of samples and positive controls, cell supernatants and 2.2.15 cells were harvested, respectively. Secretory volumes of HBsAg and HBeAg in the cell supernatants were assayed with the RIA method. The degree of HBV DNA replication in the cells was assayed with dot blot method. IC50 and SI were calculated, respectively.

[2] = tested on: HBV DNA replication; assay: In vitro anti-HBV: inhibition of HBV DNA replication in 2.2.15 cells (dot blot); assay type: cell-based, hepatitis B virus; details: day 8, dot blot; for IC50: Hepatitis B virus, 192 h
Protocol: (§1) Cell control wells were simultaneously set up. […] IC50 and SI were calculated, respectively.

[3] = tested on: 2.2.15 cells; assay: Cytotoxicity (TC50, median toxic concentration) in 2.2.15 cells; assay type: cell-based
Protocol: as §1

[4] = tested on: DHBV-DNA; assay: In vivo inhibition of DHBV-DNA in DHBV-infected ducklings; details: intraperitoneal daily
Description: Test compounds: the compound prepared in Example 75
Test method: One-day-old ducklings were infected with serum containing DHBV positive virus (about 10^8-9 virions/ml). After a week, blood was collected and tested. The successfully transfected ducklings were randomly divided into three to five groups. Blank group, positive control group and treatment group(s) (one to three groups) were subjected to treatment tests. The treatment groups were divided into high, median and low dose groups. Intraperitoneal injection was carried out daily for ten days. Physiological saline was used to replace drugs in the blank group. Lamivudine was administered in the positive control group. […] Serum was separated and kept at −70° C. for tests. Duck hepatitis B virus surface antigen (DHBsAg) was assayed with DHBsAg dot molecular hybridization (DOT EIA). Duck hepatitis B virus deoxyribonucleic acid (DHBV DNA) contents in serum and duck livers were assayed with dot blot hybridization.

[5] = tested on: HBeAg; details: 2.2.15 cells, day 8, RIA
Protocol: Test Principle: • 2.2.15 cells were used as a vector of hepatitis B virus. Samples were assayed for their abilities to inhibit NBV to carry out DNA replication and to produce HBsAg and HBeAg.
Test Materials and Method: • a. cell line: 2.2.15 cells; • b. treatment of samples: A sample was dissolved in DMSO in a suitable concentration right before use. The resulting solution was diluted in triple folds with culture media. […] After 36 hours, samples and positive controls in the above dilutions were added into the wells. Cell control wells were simultaneously set up. Culture media were replaced with fresh culture media containing samples in different dilutions, respectively, after 96 hours of addition of samples and positive controls. At the eighth day of addition of samples and positive controls, cell supernatants and 2.2.15 cells were harvested, respectively. Secretory volumes of HBsAg and HBeAg in the cell supernatants were assayed with the RIA method. The degree of HBV DNA replication in the cells was assayed with dot blot method. IC50 and SI were calculated, respectively.

[6] = 12.5 mg/kg, 3rd Day of Withdrawal
[7] = 25.0 mg/kg, 3rd Day of Withdrawal
[8] = 50.0 mg/kg, 3rd Day of Withdrawal

CCCCOc1ccc(C[C@H](NC(=O)[C@H](Cc2ccccc2)NC(=O)c2ccccc2)C(=O)[O-])cc1.[Na+] [Example 74, N-(N-benzoyl-L-phenylalanyl)-O-n-butyl-L-tyrosine sodium salt]
IC50 ([1]; 2.2.15 cells, day 8, RIA): 25.2 µg/mL | IC50 [2]: 33 µg/mL | TC50 [3]: >500 µg/mL

CN(C)CCOc1ccc(C[C@H](NC(=O)c2ccccc2)C(=O)N[C@H](CO)Cc2ccccc2)cc1.Cl [Example 75, N-[N-berizoyl-O-(2-dimethylamino-ethyl)-L-tyrosyl]-L-phenylalaninol hydrochloride]
Inhibition of HBsAg IC50 ([1]; 2.2.15 cells, day 8, RIA): 33.51 µg/mL | Inhibition Ratio [4, 6]: 9.23 | OD Value [4, 6]: 1.09 | Inhibition Ratio ([4]; 12.5 mg/kg, 5th Day of Test): 12.87 | OD Value ([4]; 12.5 mg/kg, 5th Day of Test): 1.11 | Inhibition Ratio ([4]; 12.5 mg/kg, 10th Day of Test): 12.92^a | OD Value ([4]; 12.5 mg/kg, 10th Day of Test): 1.11^a | Inhibition Ratio [4, 7]: 38.12^d | OD Value [4, 7]: 0.87^b | Inhibition Ratio ([4]; 25.0 mg/kg, 5th Day of Test): 18.67^c | OD Value ([4]; 25.0 mg/kg, 5th Day of Test): 1.15^a | Inhibition Ratio ([4]; 25.0 mg/kg, 10th Day of Test): 32.91^d | OD Value ([4]; 25.0 mg/kg, 10th Day of Test): 0.95^b | Inhibition Ratio [4, 8]: 42.30^d | OD Value [4, 8]: 0.83^b | Inhibition Ratio ([4]; 50.0 mg/kg, 5th Day of Test): 36.43^c | OD Value ([4]; 50.0 mg/kg, 5th Day of Test): 0.94^a | Inhibition Ratio ([4]; 50.0 mg/kg, 10th Day of Test): 54.62^d | OD Value ([4]; 50.0 mg/kg, 10th Day of Test): 0.73^b | Inhibition of DNA Replication IC50 [2]: 2.41 µg/mL | Inhibition of HBeAg IC50 [5]: 13.51 µg/mL | TC50 [3]: 388.03 µg/mL

O=C(N[C@@H](Cc1ccc(OCO)cc1)C(=O)N[C@H](CO)Cc1ccccc1)c1ccccc1.[Na] [Example 80, N-[N-benzoyl-O-hydroxymethyl-L-tyrosyl]-L-phenylalaninol sodium salt]
IC50 [1]: 150 µg/mL | IC50 [2]: 27.3 µg/mL | TC50 [3]: 388.03 µg/mL
